Assay results taken from paper PMC10804612, “In vivo validation of psilacetin as a prodrug yielding modestly lower peripheral psilocin exposure than psilocybin” (Frontiers in Psychiatry, 2024).

Columns and labels:
head twitch responses = tested on: head twitch responses; set-up: method as in PMID 33860183; conditions: equimolar basis; cited from earlier work
5-HT2A receptor = tested on: 5-HT2A receptor; set-up: method as in PMID 36407948, PMID 33860183; conditions: in vitro; cited from earlier work
[1] = Plasma psilocin by LC-MS/MS after intraperitoneal psilocybin or psilacetin fumarate
[2] = cited from earlier work

Row | Compound | head twitch response potency (head twitch responses) | receptor potency, fold lower than that of psilocin (5-HT2A receptor) | k el ([1]; both, C57Bl6/J, mouse, plasma, ip) | half-life ([1]; both, C57Bl6/J, mouse, plasma, ip, psilocin half-life (T1/2), plasma psilocin from psilocybin or psilacetin, mice) | plasma psilocin concentration by 4 h after administration ([1]; lower limit of quantitation 0.1 ng/mL, approximately 6 half-lives) | psilocin half-life ([1]; plasma psilocin, mice) | terminal elimination rate of psilocin, range ([1]; range across tested conditions) | plasma concentrations in human pharmacokinetic studies [2]
1 | CC(=O)Oc1cccc2[nH]cc(CCN(C)C)c12 [psilacetin, 4-acetoxy-N,N-dimethyltryptamine] | 1.12 µmol/kg | 10- to 20 fold |  |  |  |  |  | 
2 | CN(C)CCc1c[nH]c2cccc(O)c12 [psilocin] | 0.81 µmol/kg |  | 0.000433 s⁻¹ | ~30 min | near or below the lower limit of quantitation | approximately one-half | 0.020–0.038 min^1 | 
3 | CN(C)CCc1c[nH]c2cccc(OP(=O)(O)O)c12 [psilocybin] |  |  |  |  |  |  |  | 5 to 50 ng/mL
